Key:
[1] = target: TGFβRI kinase ALK5 (Homo sapiens (Human), UniProt P36897); experiment: Inhibition of TGFβRI kinase ALK5 activity (TGFβRI kinase assay kit, ADP-Glo); type: biochemical; settings: ATP 50 μM; read-out: IC50 of inhibition effect on TGFβRI kinase ALK5 activity
Protocol: The inhibition effect of TGFβRI kinase activity in vitro was determined by the following method.
The inhibition effect of the compounds of the present invention on TGFβRI kinase ALK5 activity was determined by the following experimental method:
(§1) TGFβRI kinase assay kit (V4093, Promega) was used to assay enzyme activity. 2 μl of enzyme solution (the final concentration of enzyme in the reaction system was 2 ng/μL) formulated with reaction buffer (40 mM Tris pH 7.5, 20 mM MgCl2, 0.1 mg/ml BSA), 1 μl of a 3-fold gradient dilution of the compounds dissolved in 5% DMSO, and 2 μl of a mixed solution of ATP and TGFβRI substrate peptide (the final concentration of ATP was 50 μM, and the final concentration of substrate was 0.2 μg/μL) were added successively to a 384-well plate (4514, Corning). After reaction at 27° C. for 2.5 hours, 5 μl of ADP-Glo solution in the kit was added to each well, then the plate was placed at 27° C. for 40 minutes. 10 μl of kinase assay reagent was then added to each well, then the plate was placed at 27° C. for 30 minutes. The chemiluminescence signal values were measured with a Victor 3 (PerkinElmer) multi-function microplate reader. The IC50 values of the compounds for enzyme inhibition were calculated using Graphpad prism software based on each concentration of the compound and the corresponding signal value thereof.

[2] = system: NIH3T3 cell; experiment: Inhibition of NIH3T3 cell proliferation (CellTiter-Glo); type: cell-based; settings: Mus musculus, 72 hours, 0.5% FBS
Protocol: The inhibition effect of the compounds of the present invention on NIH3T3 cell proliferation was determined by the following in vitro test.
The inhibition effect of the compounds of the present invention on NIH3T3 cell proliferation was determined by the following experimental method:
On a 96-well white plate with transparent bottom (3903, Corning), 100 μL of NIH3T3 cell (GNM6, Cell Bank of Typical Culture Collection Committee of Chinese Academy of Sciences) was seeded in a DMEM medium containing 10% FBS in each well. The seeding density is 2000 cells/well. The cells were incubated overnight at 37° C., 5% CO2. After overnight incubation, each well was replaced with 90 μL of DMEM medium containing 0.5% FBS. 10 μl of a 3-fold gradient dilution of the compounds with DMEM medium containing 0.5% FBS was then added, and the plate was incubated for 72 hours in a cell incubator at 37° C., 5% CO2. Finally, 50 μL of CellTiter-Glo (G7573, Promega) was added to each well. After incubation for 10 minutes at room temperature, the chemiluminescence signal values were measured with a Victor 3 microplate reader (PerkinElmer). The IC50 values of the compounds were calculated using Graphpad Prism software based on each concentration of the compound and the corresponding signal value thereof.

[3] = system: Smad signaling pathway of TGFβRI; experiment: Inhibition of Smad signaling pathway of TGFβRI (3TP-lux luciferase reporter in HepG2 cell); type: cell-based; settings: Homo sapiens; HepG2 cell, 3TP-lux plasmid, 18 hours; read-out: IC50 on the inhibition of Smad signaling pathway of TGFβRI
Protocol: The inhibition effect of the compounds of the present invention on Smad signaling pathway of TGFβRI was determined by the following in vitro test.
The inhibition effect of the compounds of the present invention on Smad signaling pathway of TGFβRI was determined by the following experimental method:
The seeding density is 2.5×10^4 cells/well. The cells were incubated overnight at 37° C., 5% CO2. Each well was replaced with fresh EMEM medium containing 10% FBS. […] The cells were further incubated for 24 hours at 37° C., 5% CO2. Each well was replaced with 90 μL of EMEM medium containing 0.5% FBS, then the cells were starved for 6 hours. The compounds were formulated as a 20 mM stock solution, which was diluted in gradient to a 400× concentration with 100% DMSO, and further 40-fold diluted with EMEM containing 0.5% FBS. The cell culture plate was taken out, then 10 μl of diluted compound or control (0.25% DMSO) was added to each well respectively. The plate was shaken gently, then incubated for 18 hours in an incubator at 37° C., 5% CO2. Finally, 100 μl of detection reagent ONE-Glo™ Luciferase Assay (E6110, Promega) was added to each well, and the plate was placed in dark at room temperature for 10 minutes. The chemiluminescence signal values were measured with a Victor 3.0 (PerkinElmer). The IC50 values of the compounds were calculated using Graphpad Prism software based on each concentration of the compound and the corresponding signal value thereof.

[4] = Pharmacokinetics assay in rats after intragastrical administration; type: in vivo; settings: both sexes, Sprague-Dawley, rat, plasma, po, SD rats, 2 mg/kg; for Vd/F: read-out: Apparent distribution volume Vz/F; for AUC: read-out: Area under curve AUC; for CL/F: read-out: Clearance CLz/F; for half-life: read-out: Half-life T1/2 (converted); for Cmax: read-out: Plasma concentration Cmax; for MRT: read-out: Residence time MRT
Protocol: Rats were used as test animals. The drug concentration in plasma at different time points was determined by LC/MS/MS method after intragastrical administration of the compounds of Examples 1-1, 1-2, 2-1, 3-1, the compound with retention time of 6.631 minutes among Examples 9-1 and 9-2, and the compounds of Examples 33 and 39-1 to rats. The pharmacokinetic behavior of the compounds of the present invention was studied and evaluated in rats.
Compounds of Examples 1-1, 1-2, 2-1, 3-1, compound with retention time of 6.631 minutes among Examples 9-1 and 9-2, and compounds of Examples 33 and 39-1.
Twenty-eight healthy adult Sprague-Dawley (SD) rats (half male and half female) were purchased from SINO-BRITISH SIPPR/BK LAB. ANIMAL LTD., CO, with Certificate No.: SCXK (Shanghai) 2008-0016, and equally divided into 7 groups (4 rats per group).
A certain amount of the test compound was weighed, and added with 5% by volume of DMSO, 5% by volume of Tween 80, and 90% by volume of physiological saline were added to prepare a 0.2 mg/mL colorless, clear and transparent solution.
After an overnight fast, SD rats were administered intragastrically the test compounds at an administration dosage of 2.0 mg/kg and an administration volume of 10.0 mL/kg.
The rats were intragastrically administered the compounds of Examples 1-1, 1-2, 2-1, 3-1, the compound with retention time of 6.631 minutes among Examples 9-1 and 9-2, and the compounds of Examples 33 and 39-1.0.2 mL of blood was taken from the orbital sinus before administration and at 0.5, 1.0, 2.0, 4.0, 6.0, 8.0, 11.0 and 24.0 hours after administration. The samples were stored in heparinized tubes, and centrifuged for 10 minutes at 4° C. at 3,500 rpm to separate the blood plasma. The plasma samples were stored at −20° C. The rats were fed 2 hours after administration.
The content of the test compounds in the plasma of rats after intragastrical administration of the test compounds at different concentrations was determined: 25 μL of rat plasma at each time after administration was taken, added with 50 μL (100 ng/mL) of the internal standard solution of camptothecin and 175 μL of acetonitrile, shaken vertically for 5 minutes, and centrifuged for 10 minutes (4000 rpm). 3.0 μL of the supernatant was taken from the plasma samples for LC/MS/MS analysis.

[5] = target: p38α kinase (Homo sapiens (Human), UniProt Q16539); experiment: Inhibition of p38α kinase activity (p38α kinase assay kit, ADP-Glo); type: biochemical; settings: ATP 50 μM; read-out: IC50 of inhibition effect on p38α kinase activity
Protocol: The inhibition of p38α kinase activity in vitro was determined by the following method.
The inhibition effect of the compounds of the present invention on p38a kinase activity was determined by the following experimental method:
as §1, with “p38α kinase” for “TGFβRI kinase”, “kit (V9591,” for “kit (V4093,”, “was 0.5” for “was 2”, “and p38” for “and TGFβRI”, “compounds on” for “compounds for”

Chain of TGFβRI kinase ALK5 (P36897 34-503): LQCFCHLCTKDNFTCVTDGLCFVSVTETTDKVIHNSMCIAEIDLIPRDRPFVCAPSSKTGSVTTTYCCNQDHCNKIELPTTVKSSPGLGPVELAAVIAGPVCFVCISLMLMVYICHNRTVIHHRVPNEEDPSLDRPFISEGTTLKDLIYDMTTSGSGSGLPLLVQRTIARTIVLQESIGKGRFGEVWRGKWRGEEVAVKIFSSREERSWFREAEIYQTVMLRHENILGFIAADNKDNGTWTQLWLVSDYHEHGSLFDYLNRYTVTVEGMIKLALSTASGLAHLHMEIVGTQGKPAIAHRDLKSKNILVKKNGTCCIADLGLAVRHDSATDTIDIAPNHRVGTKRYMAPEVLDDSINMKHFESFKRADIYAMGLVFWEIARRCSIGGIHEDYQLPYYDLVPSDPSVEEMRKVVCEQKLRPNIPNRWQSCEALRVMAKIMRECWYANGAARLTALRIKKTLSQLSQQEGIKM
Chain of p38α kinase (Q16539 whole entry): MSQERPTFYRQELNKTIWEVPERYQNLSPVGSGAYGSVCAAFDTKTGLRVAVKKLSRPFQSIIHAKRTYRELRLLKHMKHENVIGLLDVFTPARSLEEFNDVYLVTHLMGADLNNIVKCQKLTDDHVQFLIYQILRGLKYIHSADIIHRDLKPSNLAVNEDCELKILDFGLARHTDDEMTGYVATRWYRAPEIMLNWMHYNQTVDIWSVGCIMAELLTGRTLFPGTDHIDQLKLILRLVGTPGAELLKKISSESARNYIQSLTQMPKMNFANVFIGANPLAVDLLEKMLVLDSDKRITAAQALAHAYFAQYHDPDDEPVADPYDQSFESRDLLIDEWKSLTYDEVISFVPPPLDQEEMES

SMILES	IC50 [1]	IC50 [2]	IC50 [3]	Vd/F [4]	AUC [4]	CL/F [4]	half-life [4]	Cmax [4]	MRT [4]	IC50 [5]
Cc1cccc(-c2nc3n(c2-c2cc4cnccc4s2)C2CCC3C2)n1 (stereo not drawn) [Example 10, 2-(2-(6-Methylpyridin-2-yl)-5,6,7,8-tetrahydro-5,8-methanoimidazo[1,2-a]pyridin-3-yl) thieno[3,2-c]pyridine]	25 nM	41 nM	23 nM	–	–	–	–	–	–	–
Cc1cccc(-c2nc3n(c2-c2ccc4ncnn4c2)C2CCC3C2)n1 (stereo not drawn) [Example 11, 3-([1,2,4]Triazolo[1,5-a]pyridin-6-yl)-2-(6-methylpyridin-2-yl)-5,6,7,8-tetrahydro-5,8-methanoimidazo[1,2-a]pyridine]	16 nM	37 nM	26 nM	–	–	–	–	–	–	–
Cc1cccc(-c2nn3c(c2-c2ccnc(-c4ccc(S(C)(=O)=O)cc4)c2)C2CCC3CC2)n1 [Example 33, 2-(6-Methylpyridin-2-yl)-3-(2-(4-(methylsulfonyl)phenyl)pyridin-4-yl)-4,5,6,7-tetrahydro-4,7-ethanopyrazolo[1,5-a]pyridine]	34 nM	–	87 nM	16.4 ± 10.7 L/kg	228 ± 159 ng·h/mL	193 ± 95 mL/min/kg	0.973 ± 0.3 h	178 ± 113 ng/mL	1.2 ± 0.35 h	563 nM
Cc1cccc(-c2nc3n(c2-c2ccc4nccc(C(N)=O)c4c2)[C@@H]2CC[C@H]3C2)n1 [Example 1-2, 6-((5R,8S)-2-(6-Methylpyridin-2-yl)-5,6,7,8-tetrahydro-5,8-methanoimidazo[1,2-a]pyridin-3-yl)quinoline-4-carboxamide]	16 nM	–	15 nM	14.6 ± 7.63 L/kg	475 ± 267 ng·h/mL	89.2 ± 47.4 mL/min/kg	1.92 ± 0.14 h	146 ± 81 ng/mL	3.53 ± 0.93 h	–
Cc1cccc(-c2nn3c(c2-c2ccc4ncnn4c2)C2CCC3CC2)n1 [Example 38, 3-([1,2,4]Triazolo[1,5-a]pyridin-6-yl)-2-(6-methylpyridin-2-yl)-4,5,6,7-tetrahydro-4,7-ethanopyrazolo[1,5-a]pyridine]	9 nM	33 nM	11 nM	–	–	–	–	–	–	–
NC(=O)c1nnc2ccc(-c3c(-c4ccc(F)cn4)nc4n3C3CCC4C3)cn12 (stereo not drawn) [Example 9, 6-(2-(5-Fluoropyridin-2-yl)-5,6,7,8-tetrahydro-5,8-methanoimidazo[1,2-a]pyridin-3-yl)-[1,2,4]triazolo[4,3-a]pyridine-3-carboxamide]	43 nM	91 nM	82 nM	–	–	–	–	–	–	–
Cc1cccc(-c2nc3n(c2-c2ccc4nccc(C(N)=O)c4c2)C2CCC3C2)n1 (stereo not drawn) [Example 1, 6-(2-(6-Methylpyridin-2-yl)-5,6,7,8-tetrahydro-5,8-methanoimidazo[1,2-a]pyridin-3-yl) quinoline-4-carboxamide]	14 nM	80 nM	57 nM	–	–	–	–	–	–	–
NC(=O)c1ccnc2ccc(-c3c(-c4ccccn4)nc4n3[C@H]3CC[C@@H]4C3)cc12 [Example 45-1, 6-((5S,8R)-2-(Pyridin-2-yl)-5,6,7,8-tetrahydro-5,8-methanoimidazo[1,2-a]pyridin-3-yl) quinoline-4-carboxamide]	29 nM	51 nM	32 nM	–	–	–	–	–	–	–
Cc1cccc(-c2nc3n(c2-c2ccc4ncc(OCCO)nc4c2)C2CCC3C2)n1 (stereo not drawn) [Example 7, 2-((7-(2-(6-Methylpyridin-2-yl)-5,6,7,8-tetrahydro-5,8-methanoimidazo[1,2-a]pyridin-3-yl)quinoxalin-2-yl)oxy)ethanol]	20 nM	23 nM	6 nM	–	–	–	–	–	–	–
Cc1cccc(-c2nc3n(c2-c2ccnc(-c4cnn(C)c4)c2)C2CCC3C2)n1 (stereo not drawn) [Example 12, 3-(2-(1-Methyl-1H-pyrazol-4-yl)pyridin-4-yl)-2-(6-methylpyridin-2-yl)-5,6,7,8-tetrahydro-5,8-methanoimidazo[1,2-a]pyridine]	9 nM	13 nM	33 nM	–	–	–	–	–	–	454 nM
Cc1cccc(-c2nc3n(c2-c2ccc4nccnc4c2)C2CCC3C2)n1 (stereo not drawn) [Example 6, 2-(6-Methylpyridin-2-yl)-3-(quinoxalin-6-yl)-5,6,7,8-tetrahydro-5,8-methanoimidazo[1,2-a]pyridine]	26 nM	22 nM	21 nM	–	–	–	–	–	–	–

— patent US10906905B2, “Five-membered heteroaryl ring bridged ring derivative, preparation method therefor and medical use thereof” (Jiangsu Hengrui Medicine Co., Ltd., priority 2016, dated 2021)
